Measured values: patent US12054509B2, “Antimicrobial compounds, compositions, and uses thereof” (Lakewood Amedex, Inc., priority 2017, dated 2024)

Columns and labels:
[1] = tested on: wild type E. coli (ATCC 25922); test: Bacterial cytological profiling at pH 4, 5.5, 7 (Example 8), E. coli; type: cell-based; details: pH 5.5 and 7
Method: This bacterial cytological profiling (BCP) investigation uses methods and materials described previously by Nonejuie, P., Burkart, M., Poglianoa, K., Pogiano, J. (2013). Bacterial cytological profiling rapidly identifies the cellular pathways targeted by antibacterial molecules. Proc. Natl. Acad. Sci. U.S.A. 110(40):16169-16174. doi: 10.1073/pnas.1311066110.
For viable cell counts, cells are grown to OD600≈0.4 and diluted 1:1 into buffered or unbuffered media containing various compound concentrations. Samples are then collected and serially diluted (1:10) on a 96 well plate. Five microliters from each well are spotted on LB plates, incubated at 30° C., and viable cells are counted the next day.
Samples are collected at 10, 30, 120, and 240 min of exposure for viable cell count and imaging. For imaging, E. coli and S. aureus 200 μL of treated cells per time point are stained with 0.8 μg/mL FM4-64, 1.5 μg/mL DAPI, and 0.4 μM SYTOXGreen (Molecular Probes/Invitrogen). P. aeruginosa samples are stained 0.4 μM SYTOX Green, 28 μg/mL DAN, and 1 μg/mL FM 4-64. Cells are transferred to an agarose pad (20% LB, 1% agarose) for imaging.
For Nu-3 and Nu-8 stocks (at pH 4, 5.5 and 7), stock concentration is 500 mg/mL. For pH 4, the stocks are prepared by dissolving Nu-3 in 25 mM citrate buffer and Nu-8 in 350 mM citric acid. For pH 5.5, the stocks are prepared by dissolving Nu-3 in 25 mM citric-phosphate and Nu-8 in 25 mM critic. For pH 7, the stocks are prepared by dissolving Nu-3 and Nu-8 in 25 mM Sorensen phosphate buffer. 2×LB (lysogeny broth) solutions are prepared with 50 mM citrate buffer for pH 4, 50 mM citrate-phosphate buffer for pH 5.5, and 50 mM Sorensen phosphate buffer for pH 7.

[2] = tested on: Streptococcus pneumoniae (PRSP); test: MIC at pH 3.5 (CLSI, Mueller-Hinton broth); type: cell-based
[3] = tested on: bacterial strains; test: MIC at pH 3.5 in human and mouse urine; type: cell-based
Description: Bacterial strains evaluated in this study include Escherichia coli, Klebsiella spp, Serratia marcescens, Proteus mirabilis/vulgaris, Citrobacter spp, Providencia spp, Morganella morganii, Pseudomonas aeruginosa, Staphylococcus aureus (MRSA only), and Enterococcus faecalis. […]

[4] = tested on: E. coli ATCC25922; test: Urinary tract infection model in Sprague-Dawley rats, transurethral treatment (Example 12); type: in vivo; details: 60 min
Method: Female Sprague-Dawley rats (n=6/group) are intraurethrally infected with the pre determined inoculum size of E. coli. At the specified time following infection with (depending on the in vivo growth curve), the animals are anaesthetized (ketamine/xylazine) and treated by transurethral administration with neutral saline (group 1), saline pH 3.5 adjusted with phosphoric acid (group 2), test compound Nu-8 pH 3.5 at 103 and 207 mg/kg (groups 3 and 4, respectively). When adjusting pH, the volume of phosphoric acid added are monitored and the final concentration of the pH adjusted dose solution are subsequently determined. The goal is to have the final concentration after pH adjustment within 10% of the desired dose so the final concentration after pH adjustment are reported. Volume of administration will be 300 μL. TABLE 10 (Animal Challenge and Treatment Schedule) summarizes the study groups.
Two hours prior to each infection animals are water deprived. Each animal is infected twice with 24 hrs difference by transurethral administration of 300 μL of bacterial suspension under light ketamine and xylazine anaesthesia. Prior to infection, urine is evacuated by digital pressure, cannula is gently inserted into the bladder via urethra and 300 μL of bacterial suspension is inserted into the bladder. […]

`CCCCOP(=O)(O)OC[C@H]1O[C@@H](n2ccc(N)nc2=O)C[C@@H]1OP(=O)(O)OCCCC` [Nu-8, sodium ((2R,3S,5R)-5-(4-amino-2-oxopyrimidin-1(2H)-yl)-3-((butoxyoxidophosphor-yl)oxy)tetrahydrofuran-2-yl)methyl butyl phosphate] was tested, and the “effect on cell permeability, viability and growth” value [1] was “alters E. coli cell permeability and reduces cell viability and growth”, the MIC [2] was 9.38 to 18.8 mg/mL and the “MICs in human and mouse urine” value [3] was “comparable to those of Nu-8 in Mueller Hinton broth”. For the same molecule, the “mean CFU per mL of bladder tissue (tissue plus urine)” value ([4]; 103 mg/kg pH 3.5 transurethral) was 5.53 Log 10 CFUs/mL bladder tissue and the “mean CFU per mL of bladder tissue (tissue plus urine)” value ([4]; 207 mg/kg pH 3.5 transurethral) was 4.60 Log 10 CFUs/mL bladder tissue.
